Source: US20120165331A1, “Di/tri-aza-spiro-C9-C11alkanes” (priority 2010, published 2012)

Legend:
[1] = target: T1, human orexin 1 receptor (Homo sapiens, UniProt O43613); test: Calcium accumulation in cells (FLIPR), antagonism of orexin A, human orexin 1 receptor; format: cell-based; conditions: for Ki: calcium accumulation, antagonism of orexin A, Cheng-Prusoff corrected, read-out: FLIPR hOx1R Ki; for inhibition at 10 µM: measured at a concentration of 10 μM of compound, read-out: FLIPR hOx1R % inhibition
T1 construct: expressed in transfected cells
T1 sequence (O43613 1-425): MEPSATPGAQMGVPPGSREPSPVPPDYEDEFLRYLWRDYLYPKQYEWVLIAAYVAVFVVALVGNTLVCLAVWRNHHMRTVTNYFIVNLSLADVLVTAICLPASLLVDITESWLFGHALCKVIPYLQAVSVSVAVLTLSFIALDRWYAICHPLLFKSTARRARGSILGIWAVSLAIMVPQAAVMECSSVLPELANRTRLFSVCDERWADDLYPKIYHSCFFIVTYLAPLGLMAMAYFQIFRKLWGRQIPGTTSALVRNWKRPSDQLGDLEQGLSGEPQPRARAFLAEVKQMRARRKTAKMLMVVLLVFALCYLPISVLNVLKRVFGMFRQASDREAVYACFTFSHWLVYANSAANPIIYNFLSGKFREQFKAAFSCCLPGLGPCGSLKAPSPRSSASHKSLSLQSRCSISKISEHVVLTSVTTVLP

[2] = target: T2, human orexin 2 receptor (Homo sapiens, UniProt O43614); test: Calcium accumulation in cells (FLIPR), antagonism of orexin A, human orexin 2 receptor; format: cell-based; conditions: for Ki: calcium accumulation, antagonism of orexin A, Cheng-Prusoff corrected, read-out: FLIPR hOx2R Ki; for inhibition at 10 µM: measured at a concentration of 10 μM of compound, read-out: FLIPR hOx2R % inhibition
T2 construct: expressed in transfected cells
T2 sequence (O43614 1-444): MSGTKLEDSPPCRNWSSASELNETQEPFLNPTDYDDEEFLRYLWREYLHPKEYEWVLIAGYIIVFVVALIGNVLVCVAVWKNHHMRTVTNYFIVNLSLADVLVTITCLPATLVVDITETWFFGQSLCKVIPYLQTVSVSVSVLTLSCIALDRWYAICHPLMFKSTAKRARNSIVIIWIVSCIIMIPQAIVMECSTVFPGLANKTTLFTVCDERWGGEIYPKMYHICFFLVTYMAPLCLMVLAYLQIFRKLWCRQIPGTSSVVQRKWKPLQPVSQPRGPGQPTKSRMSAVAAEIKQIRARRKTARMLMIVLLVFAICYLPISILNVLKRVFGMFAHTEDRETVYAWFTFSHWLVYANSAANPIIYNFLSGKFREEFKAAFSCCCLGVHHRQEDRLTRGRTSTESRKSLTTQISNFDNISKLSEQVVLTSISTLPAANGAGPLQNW

| Compound | Ki [1] [nM] | Ki [2] [nM] | inhibition at 10 µM [1] [%] | inhibition at 10 µM [2] [%] |
| --- | --- | --- | --- | --- |
| O=C1N(Cc2c[nH]c3ccccc23)CCCC12CCN(c1nc3ccccc3o1)C2 (stereo not shown) [Example 7.8, 7-((1H-Indol-3-yl)methyl)-2-(benzo[d]oxazol-2-yl)-2,7-diazaspiro[4.5]decan-6-one] | 98 | 168 | – | – |
| COc1cc(C)nc(N2CCC3(CCCN(Cc4c[nH]c5ncccc45)C3=O)C2)n1 (stereo not shown) [Example 7.13, 7-((1H-pyrrolo[2,3-b]pyridin-3-yl)methyl)-2-(4-methoxy-6-methylpyrimidin-2-yl)-2,7-diazaspiro[4.5]decan-6-one] | 299 | 115 | – | – |
| Cc1cncc(N2CCC3(CCC(=O)N3Cc3cccc4[nH]ccc34)CC2)n1 [Example 8.2, 1-((1H-Indol-4-yl)methyl)-8-(6-methylpyrazin-2-yl)-1,8-diazaspiro[4.5]decan-2-one] | – | 133 | 12 | – |
| O=C1COCC2(CCN(c3cnc4ccccc4n3)CC2)N1Cc1c[nH]c2ccccc12 [Example 8.8, 1-((1H-Indol-3-yl)methyl)-9-(quinoxalin-2-yl)-4-oxa-1,9-diazaspiro[5.5]undecan-2-one] | – | 635 | 33 | – |
| Cn1ccc2c(CN3C(=O)COCC34CCN(c3cnc5ccccc5n3)CC4)cccc21 [Example 8.10, 1-((1-Methyl-1H-indol-4-yl)methyl)-9-(quinoxalin-2-yl)-4-oxa-1,9-diazaspiro[5.5]undecan-2-one] | 265 | 202 | – | – |
| O=C1COCC2(CCN(c3cnc4ccccc4n3)CC2)N1Cc1cccc(-c2cccnc2)c1 [Example 8.12, 1-(3-(Pyridin-3-yl)benzyl)-9-(quinoxalin-2-yl)-4-oxa-1,9-diazaspiro[5.5]undecan-2-one] | 232 | – | – | 30 |
| Cc1ccc(C)c(CN2C(=O)COCC23CCN(c2cncc(C)n2)CC3)c1 [Example 8.13, 1-(2,5-Dimethylbenzyl)-9-(6-methylpyrazin-2-yl)-4-oxa-1,9-diazaspiro[5.5]undecan-2-one] | – | 405 | < 10 | – |
| Cc1cncc(N2CCC3(CC2)COCC(=O)N3Cc2cccc3[nH]ccc23)n1 [Example 8.14, 1-((1H-Indol-4-yl)methyl)-9-(6-methylpyrazin-2-yl)-4-oxa-1,9-diazaspiro[5.5]undecan-2-one] | – | 506 | 14 | – |
| N#Cc1ccnc(N2CCC3(CC2)COCC(=O)N3Cc2cccc3[nH]ccc23)c1 [Example 8.16, 2-(1-((1H-Indol-4-yl)methyl)-2-oxo-4-oxa-1,9-diazaspiro[5.5]undecan-9-yl)isonicotinonitrile] | – | 1020 | < 10 | – |
| N#Cc1cccc(N2CCC3(CC2)COCC(=O)N3Cc2cccc3[nH]ccc23)n1 [Example 8.17, 6-(1-((1H-Indol-4-yl)methyl)-2-oxo-4-oxa-1,9-diazaspiro[5.5]undecan-9-yl)picolinonitrile] | – | 584 | 40 | – |
| N#Cc1ccnc(N2CCC3(CC2)COCC(=O)N3Cc2cccc3[nH]ccc23)n1 [Example 8.18, 2-(1-((1H-Indol-4-yl)methyl)-2-oxo-4-oxa-1,9-diazaspiro[5.5]undecan-9-yl)pyrimidine-4-carbonitrile] | – | 1010 | 25 | – |
| Cc1ccnc(N2CCC3(CC2)COCC(=O)N3Cc2cccc3[nH]ccc23)n1 [Example 8.19, 1-((1H-Indol-4-yl)methyl)-9-(4-methylpyrimidin-2-yl)-4-oxa-1,9-diazaspiro[5.5]undecan-2-one] | – | 697 | 28 | – |
| O=C1OCC2(CCN(c3cnc4ccccc4n3)CC2)N1Cc1c[nH]c2ccccc12 [Example 8.21] | – | 480 | 33 | – |
| Cc1cncc(N2CCC3(CC2)COC(=O)N3Cc2c[nH]c3ccccc23)n1 [Example 8.23, 1-((1H-Indol-3-yl)methyl)-8-(6-methylpyrazin-2-yl)-3-oxa-1,8-diazaspiro[4.5]decan-2-one] | – | – | < 10 | 20 |
